{"source": "paper PMC12655351", "about": "“Synthesis and Anticancer Activity Evaluation of New 5-((5-Nitrofuran-2-yl)allylidene)-2-thioxo-4-thiazolidinones” (Pharmaceuticals, 2025)", "key": {"[1]": {"system": "reactive oxygen species in MCF-7 cells", "experiment": "H2DCFDA and DAPI double staining", "type": "cell-based, human", "conditions": "MCF-7, 1 and 5 μM, one hour", "method": "(§1) The double staining method was applied to analyze novel compounds’ effects on the generation of reactive oxygen species. The first dye, H2DCFDA, after conversion to DCF, serves as an indicator of oxidative stress (green fluorescence), while the second one, known as DAPI, was applied to showcase nuclear genetic material of MCF-7 and MDA-MB-231 breast cancer cells (blue fluorescence). The concentrations of compounds were 1 and 5 μM for the MCF-7 cell line and 5 and 10 μM for the MDA-MB-231 cell line. The incubation time after treatment was one hour in both cell lines.\n(§2) The influences of 2b, 12b, 14b, and doxorubicin (1 and 5 µM and 5 and 10 µM for MCF-7 and MDA-MB-231 cell lines, respectively) on the generation of reactive oxygen species (ROS) were analyzed. Cells were seeded in 6-well culture plates at 1 × 10^5 cells per well in 1 mL of medium and then treated with compounds for 1 h and then washed with PBS. Double staining was conducted with 20 µM 2′,7′-dichlorodihydrofluorescein diacetate (H2DCFDA) reagent (Thermo Fisher Scientific, Eugene, OR, USA), which is colorless, and is cleaved by intracellular esterases and oxidized to the highly fluorescent 2′,7′-dichlorofluorescein (DCF), and 10 µg/mL of the fluorescent dye 4′,6-diamidino-2-phenylindole (DAPI) (Sigma-Aldrich, St. Louis, MO, USA), which visualizes the nuclear DNA of cells. A Nikon ECLIPSE Ti fluorescence microscope (Nikon, Tokyo, Japan) was used to obtain results which were analyzed using ImageJ software 1.54k (Bethesda, MD, USA). The fluorescence intensity of the DCF reagent was evaluated relative to the control. The number of analyzed cells was above 100."}, "[2]": {"system": "reactive oxygen species in MDA-MB-231 cells", "experiment": "H2DCFDA and DAPI double staining", "type": "cell-based, human", "conditions": "MDA-MB-231, 5 and 10 μM, one hour", "method": "as §1, §2"}}}
{"compound": "O=C(O)CCCCCN1C(=O)/C(=C/C=C/c2ccc([N+](=O)[O-])o2)SC1=S", "note": "[14b, 6-((Z)-5-((E)-3-(5-nitrofuran-2-yl)allylidene)-4-oxo-2-thioxothiazolidin-3-yl)hexanoic acid]", "values": [{"measurement": "generation of reactive oxygen species", "setting": "[1]", "value": "highest generation of ROS"}, {"measurement": "generation of reactive oxygen species", "setting": "[2]", "value": "highest generation of ROS"}]}
